These results are taken from patent US20030229145A1, “Pain treatment methods and compositions” (GRUENENTHAL GMBH, priority 2000, published 2003).

For one experiment, the system named is AMPA receptor. Description: Affinity for the AMPA receptor. In kind it is binding.
The subject of another experiment is NMRI mice. Description: Phenylquinone-induced writhing test on mice. In kind it is in vivo. Conditions: 10 min; mouse, i.v., phenylquinone i.p. 10 minutes after substance. On the procedure: The anti-nociceptive efficacy of the compounds according to the invention was studied on mice with the phenylquinone-induced writhing test, modified after I. C. Hendershot, J. Forsaith, J. Pharmacol. Exp. Ther. 125, 237-240 (1959). Male NMRI mice with a weight of from 25-30 g were used for this purpose. 10 minutes after intravenous administration of a compound according to the invention, groups of 10 animals per substance dose were intraperitoneally given 0.3 ml/mouse of a 0.02% strength aqueous solution of phenylquinone (phenylbenzoquinone, Sigma, Deisenhofen; production of the solution with the addition of 5% ethanol and storage in a water bath at 45° C.). The animals were placed individually in observation cages. The number of pain-induced stretching movements (so-called writhing reactions =straightening of the body with stretching of the hind extremities) were counted by means of a push-button counter 5-20 minutes after the phenylquinone administration. Animals which received physiological saline solution i.v. and phenylquinone […]. were also included as a control.
All the substances were tested in the standard dose of 10 mg/kg. The percentage inhibition (% inhibition) of the writhing reactions by a substance was calculated according to the following formula:
% inhibition=100−[WR of treated animals/ WR of control×100]
(In writhing tests, fewer writhes than in controls are read as antinociception.)

The subject of experiment [1] is AMPA response of spinal neurons in the dorsal horn. Description: Microiontophoresis on anaesthetized rats (evoked potentials of dorsal horn cells after application of excitatory amino acids). In kind it is in vivo. Conditions: for ED50: Rattus norvegicus, Neuron, read-out: ED50 of inhibition of the AMPA response; for Inhibition of the AMPA response of spinal neurons (in words): microiontophoretic NMDA, kainate. Here is the method: (derivation of evoked ascending potentials of individual cells in the dorsal horn of the spinal cord of anaesthetized rats after microiontophoretic application of excitatory amino acids (EAAs))
Male rats (Sprague Dawley, Janvier) with a body weight of from 280 g to 350 g were used. To induce the anaesthesia, inhalation anaesthetization was carried out with 4.0-5.0% halothane in a mixture of 200 ml/min oxygen (O2) and 400 ml/min dinitrogen monoxide (N2O) in a plexiglas anaesthetization box. During the preparatory phase, the halothane concentration was reduced to 1.0-1.5%. For the rest of the experiment, the inhalation anaesthetization was then replaced by bolus application of 40 mg/kg of chloralose in 3.5% Haemaccel solution (i.v.) and maintained by continuous infusion of 20 mg/kg/2.0 ml/h of chloralose. After the induction anaesthetization (4.0-5.0% halothane, see above), the tracheal tube was fitted through a syringe cylinder (20 ml Omnifix, Luer) shortened to about 20 mm, which was placed over the mouth and nose of the animals, with a 2.5% halothane concentration. The halothane concentration was then reduced to about 1.5%. Exhaled air was extracted through a closed system. For the application of test substances, a PE-20 (1.09*0.38mm) catheter was fitted into the dorsal branch of the left V. jugularis. A PE-50 tube (0.9569 mm*0.58 mm) was inserted into the left arteria carotis as a catheter for continuously monitoring the blood pressure. For the laminectomy, the animals were then placed in the prone position. An incision was made along the midline from the nape of the neck to the pelvic region. A blood-pressure drop frequently observed following this was treated by local application of lidocaine HCl with adrenaline (xylocitin 2% with adrenaline 0.001%, Jenapharm). The superficial tissue layers on both sides of the spinal column were removed in the vicinity of the vertebral bodies from sacral 2 (S2) to thoracic 8 (Th8). The musculature associated with the vertebral bodies was also removed by careful scraping with a scalpel. The actual laminectomy begins at vertebral body L2 (lumbar 2), after removing the processus spinalis from vertebra L3, and extends into the TH8 rostral region as far as where the large dorsal veins branch off laterally and caudally. The bones of the individual vertebral bodies were carefully removed in small stages by means of fine rongeurs. The musculature around TH8/9 and L1/S2 was also removed, so that immobilization clamps could be fitted later. Exposed tissue was protected against drying by applied 0.9% strength NaCI solution or thin PVC strips. […] In addition to the blood pressure, the local blood circulation was visually assessed, a pink skin color of the paws indicating normal microcirculation. […]

In the next experiment the test system is Sprague Dawley rats. The experiment in a line: Mechanical hyperalgesia after paw incision on rats (paw incision model). In kind it is in vivo. Here is the method:
In this model, the pain due to a wound in the vicinity of an incision on the plantar side of a hind paw of the rat is studied as a model of postoperative pain (Brennan, T. J., Vandermeulen, E. P., Gebhart, G. F., Pain (1996) 493-501). For this purpose, the retraction latency after point mechanical stimulation with an electronic von Frey filament is determined. After the paw incision, a mechanical hyperalgesia develops and remains stable over several days.
Male Sprague Dawley rats (body weight 200-300 g) are used. […]
By using an electronic von Frey filament (Digital Transducer Indicator Model 1601C, IITC Inc.), the retraction threshold of the paw, expressed in grams, after point mechanical stimulation is determined. For this purpose, the retraction threshold is measured five times per measurement point at an interval of 30 sec, and the individual median is determined, with the aid of which the average of the animal population is calculated. […]
To study the primary hyperalgesia, the retraction threshold on the ipsilateral paw is determined in the immediate vicinity of the incision, and also in the same position on the contralateral paw. […]
The Mann-Whitney U test is used for the significance calculation (p<0.05). For dose-dependent effects, the ED50 value is determined with the aid of a regression analysis.

Structures can show the parent of a compound that is named as a salt. Where two headings read alike, the source gives them in different places.

Take `NCC1(CC(=O)O)CCCCC1` [Gabapentin]: the “Affinity for the AMPA receptor (in words)” value with AMPA receptor is recorded as “no affinity for the AMPA receptor”. Moreover, the values for the ED50 (in the experiment with NMRI mice; in experiment [1]) were 38 mg/kg and 106 mg/kg, respectively. In addition, in experiment [1] (anaesthetized rats), the “Inhibition of the AMPA response of spinal neurons (in words)” value was “dose-dependent and selective inhibition of the AMPA response”. Further, the “% MPE, retraction threshold of the ipsilateral paw” value in the experiment with Sprague Dawley rats (100 mg/kg) is 66% MPE (100 mg/kg).

For the compound `CCCC(CC)C(N)C(=O)[O-].[Na+]` (racemic), in the experiment with AMPA receptor, the “Affinity for the AMPA receptor (in words)” value is given as “without having any AMPA affinity”. The ED50 in experiment [1] (anaesthetized rats, spinal neurons in the dorsal horn) stood at 60 mg/kg. Further, in experiment [1] (anaesthetized rats), the “Inhibition of the AMPA response of spinal neurons (in words)” value is listed as “selective inhibition of the AMPA response”.

`CCCC(CC)C(N)C(=O)O.Cl` (racemic) [Compound 7, rac-amino-3-ethyl-hexanoic acid hydrochloride as a 1:1 D/L mixture]: the “% MPE, retraction threshold of the ipsilateral paw” value with Sprague Dawley rats (464 mg/kg i.p.) is 30% MPE (464 mg/kg i.p.).

Take `CCCCCC(C)C(N)C(=O)O` (racemic) [Compound 2, rac-2-amino-3-methyl-octanoic acid hydrochloride as a 1:1 D/L mixture]: the ED50 with NMRI mice was 28 mg/kg.

For orientation: ED50 means the dose that gives a 50% effect, or the effect in half of the subjects.
